Test results as given in paper PMC11395145, “The Archetypal Gamma-Core Motif of Antimicrobial Cys-Rich Peptides Inhibits H^+-ATPases in Target Pathogens” (International Journal of Molecular Sciences, 2024).
Where a SMILES comes first, the peptide text is derived from it. Bridges are numbered along the chain shown (N, C = ends).

What was measured:
[1] = test system: Pseudomonas aeruginosa 10145 (PAO1); experiment: Microbicidal (spread-plate cell viability) assay, pseudomonacidal activity; type: cell-based; conditions: for microbicidal (pseudomonacidal) activity, in words: 90 min, 37 °C, Tris buffer pH 7.4, 10^6 cells/mL, CFU plating
Method: (§1) First, we tested the antimicrobial activity of Kal-1 and a shorter Kal-1-derived peptide (Kdp15), both containing the complete γ-core signature of human lactoferrin, against C. albicans and P. aeruginosa. Microbicidal (cidal) activity was determined after 90 min of incubation (37 °C; pH 7.4) with a range of concentrations of each hLf-derived peptide.
(§2) Figure 1 Cell viability and membrane permeabilization assays. C. albicans or P. aeruginosa (10^6 cells/mL) were incubated (90 min, 37 °C) with each peptide/protein at the indicated concentrations. Aliquots were plated on SDA or […], and colonies were counted after 24–48 h (C. albicans) or 24 h (P. aeruginosa). At each point, samples were stained with propidium iodide (PI) and intracellular PI incorporation, indicative of membrane permeabilization, was quantified by flow cytometry. The relative cell viability (blue lines) and cellular permeabilization (red lines) were calculated as the percentage of untreated cells. Human lactoferrin (hLf) and the peptide Lfpep were used as negative and positive controls of cellular permeabilization, respectively.
(§3) Microbial susceptibility to the peptides was determined in a spread-plate assay as described previously. Briefly, two-fold serially diluted peptides were incubated (37 °C) with approximately 10^6 cells/mL in Tris buffer (10 mM Tris-HCl, pH 7.4). After 90 min of incubation with the peptides, aliquots were removed and plated in duplicate on an appropriate agar plate for each species (SDA for C. albicans, TSA for P. aeruginosa). The plates were incubated for 24–48 h at 30 °C (C. albicans) or 24 h at 37 °C (P. aeruginosa) for enumeration. The cell viability values, expressed as colony forming units (CFUs), were determined relative to incubation without added peptides and represent the mean ± standard deviation (±SD) of at least three independent determinations. For inhibition assays, the cell suspensions were preincubated (15 min at 37 °C) with the corresponding inhibitors before the addition of peptides. Water-insoluble inhibitors were prepared in DMSO, such that the final assay volume was ≤1%. Other specific experimental inhibition conditions are described where appropriate. The IC50 value is expressed as the concentration that caused 50% reduction in viable counts.

[2] = test system: Candida albicans ATCC 10231; experiment: Microbicidal (spread-plate cell viability) assay, candidacidal activity; type: cell-based; conditions: for microbicidal (candidacidal) activity, in words: 90 min, 37 °C, Tris buffer pH 7.4, 10^6 cells/mL, CFU plating
Method: as §1, §2, §3

C. albicans cells [3] = experiment: Oxygen consumption measurement (Clark-type electrode); type: cell-based, Candida albicans; conditions: 5 × 10^6 cells/mL, peptides at IC50, piericidin A 32 μM, at least 30 min, 25 °C
Method: (§4) Figure 3 Effect of cellular respiration on the microbicidal activity of hLf γ-core-containing peptides. (A,C) Oxygen consumption was measured in C. albicans and P. aeruginosa cellular suspensions in the absence (control) or the presence of kaliocin-1 (Kal-1), Kdp15, or human lactoferrin (hLf), and piericidin A (positive control). (B,D) Effect of cellular respiration on the microbicidal activity of hLf γ-core-containing peptides. Cells (10^6 cells/mL) were pre-incubated (15 min, 37 °C) with 32 μM piericidin A and incubated for 90 min at 37 °C with the peptides hLf or BM2. The cell viability was determined by means of the plate counting method. The results are the mean ± SD from duplicates of at least three independent experiments. * p < 0.05, ** p < 0.01, and *** p < 0.001 were used.
(§5) C. albicans or P. aeruginosa cells were grown to the mid-logarithmic phase, washed twice in Tris buffer, and resuspended in the same buffer, as described in [9, 10]. Briefly, cells (5 × 10^6 cells/mL) were pre-incubated for 15 min at 37 °C with the peptides (IC50). […] Oxygen consumption was measured using a Clark-type oxygen electrode (Dual digital-model 20, Rank Brothers Ltd., Cambridge, UK) in a closed jacketed chamber maintained at 25 °C. […] The viability of the cells was determined at 30 min by removing aliquots from the oxygen chambers and plating the subsequent dilutions on SDA or TSA plates.

P. aeruginosa cells = experiment: as above; type: cell-based, Pseudomonas aeruginosa; conditions: 5 × 10^6 cells/mL, peptides at IC50, piericidin A 32 μM, at least 30 min, 25 °C
Method: as §4, §5

[4] = test system: Candida albicans ATCC 10231; conditions: used in control assays; cited from earlier work
Method: as §1, with “peptide. The hLf γ-core-containing peptides were microbicidal in a concentration-dependent way (Figure 1). […] The IC50 es ...” for “peptide.”

C. albicans cells [5] = experiment: Measurement of intracellular ATP (BacTiter-Glo); type: cell-based, Candida albicans; conditions: C. albicans 10^6 cells/mL, candidacidal concentration, 90 min, 37 °C; BM2 0.25 μM
Method: Total ATP was measured by using the BacTiter-Glo^TM Microbial Cell Viability Assay (Promega Co., Madison, WI, USA) according to the manufacturer’s instructions. […] Aliquots (100 μL) were incubated (90 min at 37 °C) with kaliocin-1, Kdp15, or human lactoferrin and the BM2 peptide (positive control). One hundred microliters of incubation mix was transferred into a 96-well opaque white plate, mixed with an equal volume of the BacTiter-Glo reagent, and incubated for 15 min in the dark. The reagent used a thermostable luciferase to produce luminescence in an ATP-dependent manner. The emitted luminescence was detected by using a Varioskan Flash multimode reader (Thermo Scientific, Waltham, MA, USA) with a 10 s of shaking and 1 s integration time. A calibration curve was prepared for each experiment, with ATP standards ranging from 1 to 1000 nM. For assays performed in the presence of the BM2 peptide, samples were preincubated with 0.25 μM BM2 for 30 min at 37 °C. All the tests were performed in triplicate at least four times.

[6] = concentration range 0 to 100 μM

CC[C@H](C)[C@@H]1NC(=O)[C@H](C(C)C)NC(=O)[C@H](CC(C)C)NC(=O)CNC(=O)[C@H](C(C)C)NC(=O)[C@@H]2CCCN2C(=O)[C@H]([C@@H](C)CC)NC(=O)[C@@H]2CSSC[C@@H]3NC(=O)[C@H](C(C)C)NC(=O)CNC(=O)[C@H](CC(N)=O)NC(=O)[C@@H](NC(=O)[C@H](CO)NC(=O)[C@H](C)NC(C)=O)CSSC[C@H](NC(=O)[C@H](C)NC(=O)[C@H](CO)NC(=O)[C@H]([C@@H](C)O)NC(=O)CNC(=O)[C@H](CSSC[C@@H](C(=O)N[C@@H](CCCNC(=N)N)C(=O)N[C@@H](CC(N)=O)C(=O)N4CCC[C@H]4C(=O)N[C@@H](CO)C(=O)NCC(N)=O)NC(=O)[C@H](Cc4ccc(O)cc4)NC(=O)CNC1=O)NC(=O)[C@@H]1CCCN1C(=O)[C@@H]1CCCN1C(=O)[C@H](CCSC)NC(=O)[C@H](CCC(=O)O)NC(=O)[C@H](Cc1ccccc1)NC(=O)[C@@H]1CCCN1C(=O)[C@H](CO)NC3=O)C(=O)N[C@@H](CCCNC(=N)N)C(=O)N2 [PA1b] (Ac-ASCNGVCSPFEMPPCGTSACRCIPVGLVIGYCRNPSG-NH2; disulfide 3-20, 7-22, 15-32)
microbicidal (pseudomonacidal) activity, in words [1]: not pseudomonacidal | microbicidal (candidacidal) activity, in words [2]: showed candidacidal activity

C/C=C(\C)[C@H](O)[C@H](C)/C=C(C)/C=C/C/C(C)=C/Cc1nc(OC)c(OC)c(O)c1C [piericidin A, reference compound]
oxygen consumption of C. albicans in presence of the substance (C. albicans cells [3]): inhibited | oxygen consumption of P. aeruginosa in presence of the substance (P. aeruginosa cells): inhibited

CAGTGENKC [Kdp9]
antimicrobial activity, in words [1, 6]: not detected | antimicrobial activity, in words [2, 6]: not detected

D-NH2-RRRFWWFRRR-CONH2 [BM2, reference compound]
previously reported microbicidal concentration (organism not given) [4]: 0.25 µM | increment in intracellular ATP (iATP) level compared to untreated control (C. albicans cells [5]): ~ 9 fold | decrease of candidacidal activity by oligomycin A ([2]; 0.25 μM BM2, cells pre-incubated 15 min, 37 °C with 16 μg/mL oligomycin A): ~ 62% | effect of high external K^+ on candidacidal activity ([2]; Tris buffer with 50 mM KCl vs without): decreased | effect of respiration inhibition (piericidin A) on candidacidal activity ([2]; cells pre-incubated 15 min, 37 °C with 32 μM piericidin A, then 90 min with peptide): substantially inhibited | effect of Tok1p K^+ channel block (TEA^+) on candidacidal activity ([2]; cells pre-incubated 15 min with 10 mM TEA^+): significantly (p < 0.001) inhibited

GSKKPVPIIYCNRRTGKCQRM [Thanatin, complete 21-aa antimicrobial peptide from Podisus maculiventris (insect)]
microbicidal (pseudomonacidal) activity, in words [1]: most potent | microbicidal (candidacidal) activity, in words [2]: most potent

HCKNKEHLRSGRCRDDFRCWCT [PvD1, 22-aa γ-core fragment of defensin PvD1 from Phaseolus vulgaris (bean)]
microbicidal (pseudomonacidal) activity, in words [1]: showed pseudomonacidal activity
